11 compounds from patent US5314819A, “Protein having nitrile hydratase activity obtained from rhizobium, gene encoding the same, and a method for producing amides from nitriles via a transformant containing the gene” (Mitsubishi Kasei Corporation, priority 1992, dated 1994) can be followed below.

One assay has as its system AM24 protein. Put plainly: Evaluation of the nitrile hydratase activity of AM24 protein (2): substrate specificity. The assay is classed as biochemical, Rhizobium sp. MCI2643. To be noted: activity defined as 100 when acrylonitrile is the substrate; 0.2% (v/v) nitrile solution, 25° C., 5 minutes, pH 7.0; amide measured by HPLC. As to the method: One volume of the AM24 protein solution (its absorbance was 0.1 at 280 nm) and 4 volumes of 0.5M phosphate buffer, pH 7.0 were mixed together, to which were added 90 volumes of a 0.2% (v/v) solution of a nitrile compound for reaction at 25° C. for 5 minutes. After the reaction, 5 volumes of 1N HCl were added to terminate the reaction, and the resulting solution was then applied to an ODS column for HPLC, to measure the resulting amide compound. As the nitrile compound as the substrate, use was made of acrylonitrile, propionitrile, n-butyronitrile, isobutyronitrile, acetonitrile, chloroacetonitrile, malonamidenitrile, methacrylonitrile, 3-cyanopyridine, benzonitrile, and chrotononitrile.
The relative activity of each substrate is shown in Table 1, provided that the activity is defined as 100 when acrylonitrile is used as a reaction substrate.
As to `N#Cc1cccnc1` [3-Cyanopyridine], the “Specific activity (%) (relative activity of each substrate)” value was 9%.
In the case of `CC=CC#N` [Chrotononitrile], the “Specific activity (%) (relative activity of each substrate)” value is given as 34%.
The same measure, in the same setting: to `C=C(C)C#N` [Methacrylonitrile] belongs 143%; to `N#CCC(N)=O` [Malonamidenitrile], 143%; to `N#CCCl` [Chloroacetonitrile], 671%.
Still for that read-out and setting: to `N#Cc1ccccc1` [Benzonitrile] belongs 251%; to `CC#N` [Acetonitrile], 47%.
Still for that read-out and setting: to `CC(C)C#N` [Isobutyronitrile] belongs 28%; to `CCC#N` [Propionitrile], 59%; to `C=CC#N` [Acrylonitrile], 100%.
On to `CCCC#N` [n-Butyronitrile], for which the “Specific activity (%) (relative activity of each substrate)” value is 152%.

The test system of the next assay is transformant containing the pEAM24X1. Description: Conversion of a nitrile into an amide using the transformant containing pEAM24X1. It counts as cell-based, Escherichia coli DH5 α. To be noted: transformant cultured with CoCl2 and IPTG; aqueous 7% acrylonitrile solution, 30° C., 1 hour; HPLC. As to the method:
The transformant containing the pEAM24X1 obtained in Example 7 was cultured overnight at 27° C. in 10 ml of an LB culture medium (containing 50 μg/ml Ampicillin). […] The strain were centrifuged and harvested, washed once in physiological saline, and suspended in 1.6 ml of a phosphate buffer (pH 7.0, 0.1M). 0.32 ml of the suspension was sampled, followed by mixing with 80 μl of an aqueous 7% acrylonitrile solution for reaction at 30° C. for 1 hour. After the termination of the reaction by addition of HCl as described before, the acrylamide and acrylonitrile concentrations in the reaction solution were determined by HPLC.
Thus cobalt is essential for nitrile hydratase activity.
In the case of `C=CC#N` [Acrylonitrile], the “conversion of acrylonitrile to acrylamide” value is reported as “complete”.

The same assay, now with this note: transformant harboring pEAM24X1 cultured in a culture medium without cobalt.
On to `C=CC#N` [Acrylonitrile], for which the “acrylamide in the reaction solution after termination of the reaction” value was “no acrylamide was detected”.
